Where a name gives a salt, the structure may show the parent alone.
Biological target: human activated kallikrein enzyme (Homo sapiens, UniProt P03952)
Assay: Inhibition of human activated plasma kallikrein, fluorogenic PFR-AMC substrate, 500 pM enzyme format
Type: biochemical
Conditions: 500 pM activated kallikrein; 300 μM PFR-AMC; 30 min preincubation; 10 min room temperature; pH 7.5; read-out: Primary Dose Response Assay: Average EC50
Method in brief: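 Using fluorogenic PFR-AMC at 300 μM, cleavage by 500 pM human activated kallikrein ran 10 min at room temperature, read at 460 nm emission (380 nm excitation). Enzyme and compounds were first preincubated 30 min in 20 mM Tris pH 7.5, 150 mM NaCl, 1 mM EDTA, 0.1% PEG-400, 0.1% Triton X-100.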

Sequence of human activated kallikrein enzyme (P03952 391-638 limits assumed): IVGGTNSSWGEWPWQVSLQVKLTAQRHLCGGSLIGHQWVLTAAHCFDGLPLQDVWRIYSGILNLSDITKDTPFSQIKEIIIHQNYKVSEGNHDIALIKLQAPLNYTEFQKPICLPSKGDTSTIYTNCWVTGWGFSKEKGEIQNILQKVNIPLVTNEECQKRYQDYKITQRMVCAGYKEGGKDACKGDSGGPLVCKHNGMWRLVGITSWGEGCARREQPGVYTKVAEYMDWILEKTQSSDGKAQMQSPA
Sequence of human activated kallikrein enzyme (P03952 20-390 partner limits assumed): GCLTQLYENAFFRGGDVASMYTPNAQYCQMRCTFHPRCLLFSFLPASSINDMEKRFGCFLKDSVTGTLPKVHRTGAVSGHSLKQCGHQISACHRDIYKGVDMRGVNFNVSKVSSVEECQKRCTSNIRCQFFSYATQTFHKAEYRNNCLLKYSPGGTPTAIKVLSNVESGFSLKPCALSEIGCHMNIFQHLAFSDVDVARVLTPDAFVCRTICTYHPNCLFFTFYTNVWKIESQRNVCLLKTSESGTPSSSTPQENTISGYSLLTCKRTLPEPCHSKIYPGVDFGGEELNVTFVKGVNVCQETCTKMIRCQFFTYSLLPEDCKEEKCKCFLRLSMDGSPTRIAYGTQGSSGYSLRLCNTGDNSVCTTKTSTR

Structure (SMILES)	EC50 [nM]
Cc1ccc2nc(Cn3cc(C(=O)NCc4c(C)cc5c(NC(=O)OC(C)C)nccc5c4C)cn3)cn2c1 [Example 6, isopropyl (5,7-dimethyl-6-((1-((6-methylimidazo[1,2-a]pyridin-2-yl)methyl)-1H-pyrazole-4-carboxamido)methyl)isoquinolin-1-yl)carbamate]	10 to 100
Cc1cc2c(N)nccc2c(C)c1CNc1cc(OCc2ccc3ncc(C(F)(F)F)cc3c2)cnn1 [Example 423, 5,7-dimethyl-6-(((5-((3-(trifluoromethyl)quinolin-6-yl)methoxy)pyridazin-3-yl)amino)methyl)isoquinolin-1-amine]	< 1
Cc1cc2c(N)nccc2c(C)c1CNc1cc2c(ccn2Cc2ccc3ncc(Cl)cc3c2)cn1 [Example 518, 6-(((1-((3-chloroquinolin-6-yl)methyl)-1H-pyrrolo[3,2-c]pyridin-6-yl)amino)methyl)-5,7-dimethylisoquinolin-1-amine]	> 1000
Cc1cc2c(N)nccc2c(C)c1CNc1cc2c(cn1)c(F)cn2Cc1cc2cc(C3CC3)cnc2s1 [Example 286, 6-(((1-((5-cyclopropylthieno[2,3-b]pyridin-2-yl)methyl)-3-fluoro-1H-pyrrolo[3,2-c]pyridin-6-yl)amino)methyl)-5,7-dimethylisoquinolin-1-amine]	1 to 10
Cc1cc2c(N)nccc2c(C)c1CNC(=O)c1cnn(Cc2cn3cc(C4CC4)cc(Cc4nnco4)c3n2)c1 [Example 172, 1-((8-((1,3,4-oxadiazol-2-yl)methyl)-6-cyclopropylimidazo[1,2-a]pyridin-2-y1)methyl)-N-((1-amino-5,7-dimethylisoquinolin-6-y1)methyl)-1H-pyrazole-4-carboxamide]	< 1
Cc1cc(Cn2cc(C(=O)NCc3c(C)cc4c(N)nccc4c3C)cn2)cc(C)c1Cc1ccccn1 [Example 169, N-((1-amino-5,7-dimethylisoquinolin-6-yl)methyl)-1-(3,5-dimethyl-4-(pyridin-2-ylmethyl)benzyl)-1H-pyrazole-4-carboxamide]	< 1
Cc1cc2c(N)nccc2c(C)c1CNc1cc(NCc2ccc(Cn3cc(Cl)cc(Cl)c3=O)cc2)ncn1 [Example I-463, 1-(4-(((6-(((1-amino-5,7-dimethylisoquinolin-6-yl)methyl)amino)pyrimidin-4-yl)amino)methyl)benzyl)-3,5-dichloropyridin-2(1H)-one]	< 1
Cc1cc2c(N)nccc2c(C)c1CNC(=O)c1cnn(Cc2ccc3nc(C)c(C)nc3c2)c1 [Example I-464, N-((1-amino-5,7-dimethylisoquinolin-6-yl)methyl)-1-((2,3-dimethylquinoxalin-6-yl)methyl)-1H-pyrazole-4-carboxamide]	< 1
Cc1cc2c(N)nccc2c(C)c1CNC(=O)c1cnn(Cc2ccc(C(F)(F)C(=O)N(C)C)cc2)c1 [Example 23, N-((1-amino-5,7-dimethylisoquinolin-6-yl)methyl)-1-(4-(2-(dimethylamino)-1,1-difluoro-2-oxoethyl)benzyl)-1H-pyrazole-4-carboxamide]	10 to 100
Cc1cc2c(N)nccc2c(C)c1CNc1nccc2c1nnn2Cc1cn2cc(C3CC3)ccc2n1 [Example 254, 6-(((1-((6-cyclopropylimidazo[1,2-a]pyridin-2-yl)methyl)-1H-[1,2,3]triazolo[4,5-c]pyridin-4-yl)amino)methyl)-5,7-dimethylisoquinolin-1-amine]	> 1000
Cc1cc2c(N)nccc2c(C)c1CNC(=O)c1cnn(Cc2ccc(C#N)cc2)c1 [Example 92, N-((1-amino-5,7-dimethylisoquinolin-6-yl)methyl)-1-(4-cyanobenzyl)-1H-pyrazole-4-carboxamide]	10 to 100
COc1ccccc1Cn1cc(C(=O)NCc2c(C)cc3c(N)nccc3c2C)cn1 [Example 33, N-((1-amino-5,7-dimethylisoquinolin-6-yl)methyl)-1-(2-methoxybenzyl)-1H-pyrazole-4-carboxamide]	100 to 1000
Cc1cc(CNc2cc(NCc3c(C)cc4c(N)nccc4c3C)ncn2)cc(C)c1Cc1ccccn1 [Example 368, N^4-((1-amino-5,7-dimethylisoquinolin-6-yl)methyl)-N^6-(3,5-dimethyl-4-(pyridin-2-ylmethyl)benzyl)pyrimidine-4,6-diamine]	< 1
Cc1cc2c(N)nccc2c(C)c1CNc1cc(NCc2cnc3ccccc3c2)ncn1 [Example 317, N^4-((1-amino-5,7-dimethylisoquinolin-6-yl)methyl)-N^6-(quinolin-3-ylmethyl)pyrimidine-4,6-diamine, formic acid salt]	1 to 10
Cc1cc2c(N)nccc2c(C)c1CNC(=O)c1cn(Cc2ccc(CC(=O)N3CC4CC4C3)cc2)cc1F (stereo not shown) [Example I-479, 1-(4-(2-(3-azabicyclo[3.1.0]hexan-3-yl)-2-oxoethyl)benzyl)-N-((1-amino-5,7-dimethylisoquinolin-6-yl)methyl)-4-fluoro-1H-pyrrole-3-carboxamide]	< 1
Cc1cc2c(N)nccc2c(C)c1CNS(=O)(=O)c1cnn(Cc2cn3cc(C4CC4)ccc3n2)c1 [Example 490, N-((1-amino-5,7-dimethylisoquinolin-6-yl)methyl)-1-((6-cyclopropylimidazo[1,2-a]pyridin-2-yl)methyl)-1H-pyrazole-4-sulfonamide]	10 to 100

Structure (SMILES)	EC50 [nM]
Cc1cc2c(N)nccc2c(C)c1CNc1ncnc2c1nc(Cc1ccc3ncc(Cl)cc3c1)n2C [Example 539, 6-(((8-((3-chloroquinolin-6-yl)methyl)-9-methyl-9H-purin-6-yl)amino)methyl)-5,7-dimethylisoquinolin-1-amine]	100 to 1000
COc1cccc(Cn2cc(C(=O)NCc3c(C)cc4c(N)nccc4c3C)cn2)c1 [Example 43, N-((1-amino-5,7-dimethylisoquinolin-6-yl)methyl)-1-(3-methoxybenzyl)-1H-pyrazole-4-carboxamide]	10 to 100
CCOC(=O)Nc1nccc2c(C)c(CNC(=O)c3cnn(Cc4cn5cc(C)ccc5n4)c3)c(C)cc12 [Example 9, ethyl (5,7-dimethyl-6-((1-((6-methylimidazo[1,2-a]pyridin-2-yl)methyl)-1H-pyrazole-4-carboxamido)methyl)isoquinolin-1-yl)carbamate]	1 to 10
Cc1cc2c(Nc3cc(OCc4ccc(CC(=O)N(C)C)cc4)ncn3)nccc2c(C)c1CN [Example I-467, 2-(4-(((6-((6-(aminomethyl)-5,7-dimethylisoquinolin-1-yl)amino)pyrimidin-4-yl)oxy)methyl)phenyl)-N,N-dimethylacetamide]	> 1000
Cc1cc2c(N)nccc2c(C)c1CNc1cc(OCc2cn3c(C)c(Cl)ccc3n2)ncn1 [Example 304, 6-(((6-((6-chloro-5-methylimidazo[1,2-a]pyridin-2-yl)methoxy)pyrimidin-4-yl)amino)methyl)-5,7-dimethylisoquinolin-1-amine]	< 1
Cc1cc2c(N)nccc2c(C)c1CNC(=O)c1cnn(Cc2ccc(C3(C(=O)N4CCCC4)CC3)cc2)c1 [Example 122, N-((1-amino-5,7-dimethylisoquinolin-6-yl)methyl)-1-(4-(1-(pyrrolidine-1-carbonyl)cyclopropyl)benzyl)-1H-pyrazole-4-carboxamide]	< 1
Cc1cc2c(N)nccc2c(C)c1CNC(=O)c1cnn(Cc2ccc(Cc3ccccn3)cc2)c1 [Example 165, N-((1-amino-5,7-dimethylisoquinolin-6-y1)methyl)-1-(4-(pyridin-2-ylmethyl)benzyl)-1H-pyrazole-4-carboxamide]	< 1
Cc1cc2c(N)nccc2c(C)c1CNC(=O)c1cnn(Cc2cnccn2)c1 [Example 86, N-((1-amino-5,7-dimethylisoquinolin-6-yl)methyl)-1-(pyrazin-2-ylmethyl)-1H-pyrazole-4-carboxamide]	100 to 1000
Cc1cc2c(N)nccc2c(C)c1CNc1ncnc2[nH]c(Cc3ccc4ccccc4c3)cc12 [Example 540, 5,7-dimethyl-6-(((6-(naphthalen-2-ylmethyl)-7H-pyrrolo[2,3-d]pyrimidin-4-yl)amino)methyl)isoquinolin-1-amine]	10 to 100
Cc1cc2c(N)nccc2c(C)c1CNc1cc(NCc2ccc(OC(C)(C)C(=O)N(C)C)cc2)ncn1 [Example 354, 2-(4-(((6-(((1-amino-5,7-dimethylisoquinolin-6-yl)methyl)amino)pyrimidin-4-yl)amino)methyl)phenoxy)-N,N,2-trimethylpropanamide, formic acid salt]	10 to 100
Cc1ncc2ccc(Cn3cc(C(=O)NCc4c(C)cc5c(N)nccc5c4C)cn3)cc2n1 [Example 16, N-((1-amino-5,7-dimethylisoquinolin-6-yl)methyl)-1-((2-methylquinazolin-7-yl)methyl)-1H-pyrazole-4-carboxamide]	1 to 10
Cc1cc2c(N)nccc2c(C)c1CNc1cc(NCc2ccc3ncccc3c2)c(C(N)=O)nn1 [Example 452, 6-(((1-amino-5,7-dimethylisoquinolin-6-yl)methyl)amino)-4-((quinolin-6-ylmethyl)amino)pyridazine-3-carboxamide]	10 to 100
Cc1nnc(Cc2ccc(CNc3cc(NCc4c(C)cc5c(N)nccc5c4C)ncn3)cc2)s1 [Example 343, N^4-((1-amino-5,7-dimethylisoquinolin-6-yl)methyl)-N^6-(4-((5-methyl-1,3,4-thiadiazol-2-yl)methyl)benzyl)pyrimidine-4,6-diamine]	> 1000
Cc1cc2c(Nc3cc4c(cn3)nnn4Cc3cn4cc(C5CC5)ccc4n3)nccc2c(C)c1CN [Example 502, 6-((l2-azanyl)methyl)-N-(1-((6-cyclopropylinmidazo[1,2-a]pyridin-2-yl)methyl)-1H-[1,2,3]triazolo[4,5-c]pyridin-6-yl)-5,7-dimethylisoquinolin-1-amine]	> 1000
Cc1cc2c(N)nccc2c(C)c1CNC(=O)c1cnn(Cc2ccc(CC(=O)N3CC4CC(C4)C3)cc2)c1 [Example 215, 1-(4-(2-(3-azabicyclo[3.1.1]heptan-3-yl)-2-oxoethyl)benzyl)-N-((1-amino-5,7-dimethylisoquinolin-6-yl)methyl)-1H-pyrazole-4-carboxamide]	1 to 10

Source: patent US20260374754A1, “N-((ISOQUINOLIN-6-YL)METHYL)-1H-PYRAZOLE-4-CARBOXAMIDE DERIVATIVES AS PLASMA KALLIKREIN INHIBITORS FOR THE TREATMENT OF HEREDITARY ANGIODEMA” (Takeda Pharmaceutical Company Limited, priority 2022, published 2026)
